The source of these data is ChEMBL document CHEMBL5380834, “Design, Synthesis, and Biological Evaluation of Androgen Receptor (AR) Antagonist-Heat Shock Protein 90 (Hsp90) Inhibitor Conjugates for Targeted Therapy of Castration-Resistant Prostate Cancer” (J Med Chem, 2023).

Each structure is given as a SMILES string. Calls of active or inactive are those of the source. The rule behind the calls is not given here.

The term IC50 denotes the midpoint of a concentration-inhibition curve.

For data set [1], the system named is LNCaP. The experiment in a line: Cytotoxicity against AR-positive human LNCaP cells assessed as inhibition of cell growth incubated for 5 days in presence of AR agonist, R1881 in charcoal stripped serum by WST-1 assay. Type of data set: functional, cell-based. The following applies: 120 h. On the technique in general: Formazan colour is commonly taken as a measure of viable cells.

Data set [2] relates to CWR22R. The experiment in a line: Cytotoxicity against human 22Rv1 cells assessed as inhibition of cell growth incubated for 5 days in presence of AR agonist, R1881 by WST-1 assay. Type of data set: functional, cell-based. Conditions: 22Rv1, 120 h.
The nature of data set [3]: Drug uptake in human RWPE-1 cells assessed as drug internalization at 1 uM incubated for 1 hr by DAPI staining based confocal microscopy. Conditions: rwpe-1, 1 h. Type of data set: ADME, cell-based.
The nature of data set [4]: Drug uptake in HEK293T cells assessed as drug internalization at 1 uM incubated for 1 hr by DAPI staining based confocal microscopy. It is filed as ADME, cell-based. Conditions: human, hek-293t.
The nature of data set [5]: Drug uptake in human 22Rv1 cells assessed as drug internalization at 1 uM incubated for 1 hr by DAPI staining based confocal microscopy. It is filed as ADME, cell-based. Conditions: cwr22r.
A short description of data set [6]: Drug uptake in tumor of nude mouse xenografted with human 22Rv1 cells assessed as increase in fluorescence signal at 0.5 mg/kg, iv measured after 2 hrs by fluorescence imaging analysis. Type of data set: ADME, organism-based, Neoplasm, CWR22R. Conditions: in vivo. (In general: A xenograft is tissue or cells of one species grown in another, often human tumour cells in immunodeficient mice.)

The nature of data set [7]: Drug uptake in kidney of nude mouse xenografted with human 22Rv1 cells assessed as increase in fluorescence signal at 0.5 mg/kg, iv measured after 2 hrs by fluorescence imaging analysis. Type of data set: ADME, organism-based, CWR22R. Conditions: in vivo.
A short description of data set [8]: Drug uptake in liver of nude mouse xenografted with human 22Rv1 cells assessed as increase in fluorescence signal at 0.5 mg/kg, iv measured after 2 hrs by fluorescence imaging analysis. Type of data set: ADME, organism-based, CWR22R. The following applies: in vivo.
Data set [9] in a line: Drug uptake in Lung of nude mouse xenografted with human 22Rv1 cells assessed as increase in fluorescence signal at 0.5 mg/kg, iv measured after 2 hrs by fluorescence imaging analysis. Type of data set: ADME, organism-based, CWR22R. Conditions: in vivo.
Data set [10] deals with LNCaP. The data set is described as follows: Induction of apoptosis in human LNCaP cells assessed as increase in caspase-3 level at 1 uM measured after 48 hrs by Western blot analysis. It is filed as functional, cell-based. For orientation: In western blotting, separated proteins are transferred to a membrane and probed.
In data set [11] the test system is LNCaP. The data set is described as follows: Induction of apoptosis in human LNCaP cells assessed as increase in PARP level at 1 uM measured after 48 hrs by Western blot analysis. It is filed as functional, cell-based.
The subject of data set [12] is CWR22R. The experiment in a line: Induction of apoptosis in human 22Rv1 cells assessed as increase in caspase-3 level at 1 uM measured after 48 hrs by Western blot analysis. Type of data set: functional, cell-based.
The subject of data set [13] is CWR22R. The data set is described as follows: Induction of apoptosis in human 22Rv1 cells assessed as increase in PARP level at 1 uM measured after 48 hrs by Western blot analysis. It is filed as functional, cell-based.
Data set [14] relates to Androgen receptor (Homo sapiens), P10275 [UNDEFINED MUTATION]. The data set is described as follows: Induction of AR-V7 degradation in human 22Rv1 cells at 100 nM by Western blot analysis. Conditions: time <= 48.0 hrs, TDE = time-dependent effect. Type of data set: cell-based.
The test system of data set [15] is CWR22R. The experiment in a line: Antitumor activity against human 22Rv1 cells xenografted in BALB/c nude mouse assessed as reduction in tumor growth at 5 mg/kg, ip administered once every 4th day for 3 weeks. It is filed as functional, organism-based.
Data set [16] has as its system CWR22R. The data set is described as follows: Antitumor activity against human 22Rv1 cells xenografted in BALB/c nude mouse assessed as reduction in tumor size at 5 mg/kg, ip administered once every 4th day for 3 weeks. It is filed as functional, organism-based.
Data set [17] in a line: Drug uptake in human RWPE-1 cells assessed as increase in fluorescence at 1 uM incubated for 1 hr by DAPI staining based confocal microscopy. Type of data set: ADME, cell-based. Conditions: rwpe-1, 1 h.
A short description of data set [18]: Drug uptake in human HEK293T cells assessed as increase in fluorescence at 1 uM incubated for 1 hr by DAPI staining based confocal microscopy. It is filed as ADME, cell-based. The following applies: hek-293t.
Data set [19] can be described thus: Drug uptake in human 22Rv1 cells assessed as increase in fluorescence at 1 uM incubated for 1 hr by DAPI staining based confocal microscopy. The following applies: cwr22r. Type of data set: ADME, cell-based.
Data set [20] deals with Androgen receptor (Homo sapiens), P10275 [UNDEFINED MUTATION]. The experiment in a line: Induction of AR-V7 degradation in human 22Rv1 cells measured upto 24 hrs by Western blot analysis. Type of data set: cell-based. Conditions: dose 1000.0 nM.
In data set [21] the test system is CWR22R. The data set is described as follows: Antitumor activity against human 22Rv1 cells xenografted in BALB/c nude mouse assessed as downregulation of AR-FL level at 2.5 mg/kg, ip administered once every 4th day for 3 weeks. Type of data set: functional, organism-based.
The test system of data set [22] is CWR22R. The data set is described as follows: Antitumor activity against human 22Rv1 cells xenografted in BALB/c nude mouse assessed as downregulation of AR-V7 level at 2.5 mg/kg, ip administered once every 4th day for 3 weeks. It is filed as functional, organism-based.

Sequence of Androgen receptor (Homo sapiens), P10275 [UNDEFINED MUTATION] (P10275 whole entry, looked up, stated change not applied): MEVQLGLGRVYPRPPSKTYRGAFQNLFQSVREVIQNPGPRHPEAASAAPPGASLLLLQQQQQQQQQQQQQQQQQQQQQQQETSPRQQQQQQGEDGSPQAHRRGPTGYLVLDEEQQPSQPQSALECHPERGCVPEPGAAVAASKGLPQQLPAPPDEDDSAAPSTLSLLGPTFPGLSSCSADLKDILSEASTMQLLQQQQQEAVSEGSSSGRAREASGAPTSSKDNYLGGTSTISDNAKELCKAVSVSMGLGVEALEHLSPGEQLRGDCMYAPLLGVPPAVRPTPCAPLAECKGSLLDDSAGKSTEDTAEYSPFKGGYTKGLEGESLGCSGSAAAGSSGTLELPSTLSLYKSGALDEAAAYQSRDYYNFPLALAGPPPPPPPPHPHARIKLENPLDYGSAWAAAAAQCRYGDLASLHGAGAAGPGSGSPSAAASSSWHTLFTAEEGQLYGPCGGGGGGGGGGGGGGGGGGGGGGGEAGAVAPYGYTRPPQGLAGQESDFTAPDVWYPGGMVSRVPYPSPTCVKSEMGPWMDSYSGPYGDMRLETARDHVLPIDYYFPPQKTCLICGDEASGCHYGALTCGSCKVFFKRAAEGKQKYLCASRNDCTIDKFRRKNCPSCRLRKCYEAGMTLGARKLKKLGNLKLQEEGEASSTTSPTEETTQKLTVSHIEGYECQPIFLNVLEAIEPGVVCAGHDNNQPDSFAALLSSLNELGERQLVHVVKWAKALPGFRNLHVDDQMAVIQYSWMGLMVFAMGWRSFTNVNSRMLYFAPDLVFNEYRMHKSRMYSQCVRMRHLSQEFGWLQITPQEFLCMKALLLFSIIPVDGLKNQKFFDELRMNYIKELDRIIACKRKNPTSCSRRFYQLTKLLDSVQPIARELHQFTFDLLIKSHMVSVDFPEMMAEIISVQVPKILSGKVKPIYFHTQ

Consider `CC(C)c1cc(-c2n[nH]c(=O)n2-c2ccc(CN3CCN(CC4CCN(c5ccc(C(=O)N[C@H]6CC[C@H](Oc7ccc(C#N)c(Cl)c7)CC6)cn5)CC4)CC3)cc2)c(O)cc1O`, for which the IC50 in data set [1] worked out at 110 nM; in [2], 45.9 nM.

Take `CC(C)c1cc(-c2n[nH]c(=O)n2-c2ccc(CN3CCN(C(=O)CCCCCN4/C(=C/C=C/C=C/C5=[N+](C)c6ccccc6C5(C)C)C(C)(C)c5ccccc54)CC3)cc2)c(O)cc1O`: the Drug uptake entry in data set [3] is reported as “Not Active”; in data set [4], “Not Active”; in [5], “Active”; in data set [6], “Active”; in data set [7], “Not Active”; in data set [8], “Not Active”. In addition, the Drug uptake result in data set [9] is “Not Active”.

Take `N#Cc1ccc(O[C@H]2CC[C@H](NC(=O)c3cccnn3)CC2)cc1Cl`: in data set [1], the IC50 was determined as 336 nM. For the same compound, the outcome in [10], in [11], in [12] and in data set [13] was inactive.

As for `CC(C)c1cc(-c2n[nH]c(=O)n2-c2ccc(CN3CCN(CC4CCN(C(=O)c5ccc(C(=O)N[C@H]6CC[C@H](Oc7ccc(C#N)c(Cl)c7)CC6)cc5)CC4)CC3)cc2)c(O)cc1O`, the results for the IC50 in data set [1] and in data set [2] were 112 nM and 65.5 nM, respectively.

With `COc1cc(OC)c(C(C)C)cc1-c1nn(C)c(=O)n1-c1ccc(CN2CCN(CC3CCN(CC4CCN(c5ncc(C(=O)N[C@H]6CC[C@H](Oc7ccc(C#N)c(Cl)c7)CC6)cn5)CC4)CC3)CC2)cc1`, the IC50 in data set [1] and in data set [2] was above 1000 nM each time. Also, the Activity result in data set [14] is “Tde”. In data set [15], the result was Active.

For the compound `CC(C)c1cc(-c2n[nH]c(=O)n2-c2ccc(CN3CCN(C(=O)CCCNC(=O)c4ccc(C(=O)N[C@H]5CC[C@H](Oc6ccc(C#N)c(Cl)c6)CC5)cc4)CC3)cc2)c(O)cc1O`, the IC50 in data set [1] and in [2] was above 1000 nM in each case.

Take `CC(C)c1cc(-c2n[nH]c(=O)n2-c2ccc(CN3CCN(CC4CCN(c5ncc(C(=O)N[C@H]6C(C)(C)[C@H](Oc7ccc(C#N)c(Cl)c7)C6(C)C)cn5)CC4)CC3)cc2)c(O)cc1O`: the half-maximal inhibitory concentration (IC50) was 188 nM in data set [1] and 212 nM in data set [2].

In the case of `CC(C)c1cc(-c2n[nH]c(=O)n2-c2ccc(CN3CCN(CC4CCN(c5ncc(C(=O)N[C@H]6CC[C@H](Oc7ccc(C#N)c(Cl)c7)CC6)cn5)CC4)CC3)cc2)c(O)cc1O`, the IC50 in data set [1] amounted to 73.8 nM; in data set [2], 34.3 nM. Besides, the outcome in data set [16] was Active.

Regarding `CC(C)c1cc(-c2n[nH]c(=O)n2-c2ccc(CN3CCN(CC4CCN(c5ncc(C(=O)N[C@H]6CC[C@H](Oc7ccc(C#N)c(C(F)(F)F)c7)CC6)cn5)CC4)CC3)cc2)c(O)cc1O`, the IC50 in [1] amounted to 267 nM; in data set [2], 89.9 nM.

Regarding `CC(C)c1cc(-c2n[nH]c(=O)n2-c2ccc(CN3CCN(C(=O)CCCCCNC(=O)c4ccc(C(=O)N[C@H]5CC[C@H](Oc6ccc(C#N)c(Cl)c6)CC5)cc4)CC3)cc2)c(O)cc1O`, the IC50 in data set [1] and in data set [2] was above 1000 nM each time.

`N#Cc1ccc(O[C@H]2CC[C@H](NC(=O)c3cncnc3)CC2)cc1Cl`: the IC50 in data set [1] was determined as 153 nM. Besides, the outcome in [10], in data set [11], in data set [12] and in [13] was inactive.

For `CC(C)c1cc(-c2n[nH]c(=O)n2-c2ccc(CN3CCN(C)CC3)cc2)c(O)cc1O`, the Drug uptake result in [17], in data set [18] and in data set [19] was “Not Active” each time. The IC50 in data set [1] worked out at 107 nM. Also, the values for the Activity entry in data set [14] and in data set [20] were “Tde” and “Dose-Dependent Effect”, respectively. For the same compound, the result in data set [21] and in data set [22] was inactive.

In the case of `CC(C)c1cc(-c2n[nH]c(=O)n2-c2ccc(CN3CCN(C(=O)CCCCCCNC(=O)c4ccc(C(=O)N[C@H]5CC[C@H](Oc6ccc(C#N)c(Cl)c6)CC5)cc4)CC3)cc2)c(O)cc1O`, the IC50 in data set [1] and in data set [2] was above 1000 nM throughout.
